The numbers were not newly measured in patent US20250019345A1, “NEW CANNABINOID-GAB[…] USES THEREOF” (LONDON PHARMACEUTICALS AND RESEARCH CORPORATION, priority 2021, published 2025), which cites them from elsewhere.

The structures appear in SMILES notation.

For this data set the following is noted: after oral administration; for Tmax: cannabinoids.

Turning to `C=C(C)[C@@H]1CCC(C)=C[C@H]1c1c(O)cc(CCCCC)cc1O` [CBD, cannabidiol], the time of peak concentration (Tmax) was around 4 h.
For `CC(C)C[C@H](CN)CC(=O)O` [pregabalin], the bioavailability result is recorded as “exceed 90%”.
As to `CCCCCc1cc(O)c2c(c1)OC(C)(C)[C@@H]1CCC(C)=C[C@@H]21` [THC, delta-9-tetrahydrocannabinol], the Tmax is around 4 h.
